Data reported in PMC9268515, “UGT1A1 and UGT1A9 Are Responsible for Phase II Metabolism of Tectorigenin and Irigenin In Vitro” (Molecules, 2022).
Where two headings read alike, the source gives them in different places. Values belong to the molecule of their own block, whether it stands above or below them.

Experiments:
UGTs in HLMs = experiment: Inhibition of glucuronidation reaction by chemical inhibitors in HLMs; type: in vitro ADME, human; details: vs. control without inhibitor
Experimental: To obtain suitable incubation conditions, we first evaluated the linearity of metabolite formation at different times (10-60 min), the UDPGA concentrations (0.5-5 mM), and the microsome protein concentrations in HLMs (0.2-2 mg/mL). The final incubation medium used in the experiment contained MgCl2 (10 mM), microsomes (0.5 mg/mL), 1,4-lactone monohydrate (5 mM), alamethicin ([…]), UDPGA (1 mM), and different concentrations of tectorigenin or […] (1-300 μM) in Tris-HCl buffer (50 mM, pH 7.4). The mixture was incubated at 37 °C for 30 min; then, the reaction was stopped by adding ice-cold methanol. After the mixtures were centrifuged (17,000 rpm, 10 min), and the supernatant was analyzed by HPLC. Michaelis-Menten parameters (Vmax and Km) were determined on the basis of the nonlinear regression of the plot of the substrate concentration vs. rate of metabolite formation. Several well-characterized UGT substrates were used as “inhibitors” to examine the involvement of UGTs in the glucuronidation of tectorigenin or […]. To reduce nonspecific inhibition, the concentration of each inhibitor was determined according to the available literature, namely, 100 μM silibinin for UGT1A1 [31], 50 μM trifluoperazine for UGT1A4 [32], 100 μM 1-naphthol for UGT1A6/1A9 [18, 33], and 500 μM fluconazole for UGT2B7 [34]. A reaction without inhibitors was carried out in parallel as a control.

[1] = Stability experiment under different storage conditions; type: physicochemical; details: for Stability in Autosampler for 12 h, RE (%): 4 °C; for Stability in Autosampler for 12 h, RE (%) / Stability in Inactivated Metabolic System for 2 h, RE (%) / Stability −80 °C for 7 Days, RE (%): n = 5; for Stability in Inactivated Metabolic System for 2 h, RE (%): approximately 25 °C
Experimental: In the stability experiment, we evaluated the stability of tectorigenin and irigenin, as well as their metabolites, under different conditions. […] Metabolites (M, M1, and M2) were stable in the inactivated metabolic system for 2 h (held constant at approximately 25 °C) and after storage for 7 days (−80 °C), as well as in the pretreated samples placed in the autosampler for 12 h at 4 °C.

UGT1A1 = target: T1, UGT1A1 (Homo sapiens, UniProt P22309); experiment: Recombinant UGT reaction screening and enzyme kinetics, UGT1A1; type: in vitro ADME; details: recombinant UGT1A1 screening
T1 construct: purchased BD Biosciences (Woburn, MA, USA)
T1 sequence (P22309 26-533): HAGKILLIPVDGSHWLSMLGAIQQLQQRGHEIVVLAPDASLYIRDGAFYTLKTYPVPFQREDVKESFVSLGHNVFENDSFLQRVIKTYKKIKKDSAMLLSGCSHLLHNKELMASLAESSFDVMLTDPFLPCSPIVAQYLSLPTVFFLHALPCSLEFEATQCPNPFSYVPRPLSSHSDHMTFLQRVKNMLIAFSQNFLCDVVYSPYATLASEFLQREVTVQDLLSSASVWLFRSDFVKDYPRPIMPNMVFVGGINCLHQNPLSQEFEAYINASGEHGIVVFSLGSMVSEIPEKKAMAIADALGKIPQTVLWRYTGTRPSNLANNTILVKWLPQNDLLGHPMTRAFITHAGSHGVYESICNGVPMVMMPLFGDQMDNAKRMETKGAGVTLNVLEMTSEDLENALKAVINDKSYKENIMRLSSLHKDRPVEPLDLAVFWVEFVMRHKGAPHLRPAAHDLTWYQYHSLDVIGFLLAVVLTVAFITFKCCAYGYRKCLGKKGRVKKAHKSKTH
Experimental: (§1) UGT reaction screening of tectorigenin and irigenin was conducted using nine commercially available human UGTs (UGT1A1/1A3/1A4/1A6/1A9/2B4/2B7/2B15/2B17). Furthermore, we studied the enzymatic kinetic characteristics of tectorigenin and irigenin using UGT1A1 and UGT1A9. Six concentrations of tectorigenin and irigenin (1, 3, 10, 30, 100, and 300 μM) were incubated in triplicate in order to obtain the enzyme kinetic characteristics of tectorigenin and irigenin glucuronide.
(§2) For both HLMs and UGTs, metabolic kinetic analysis was performed by fitting the data to the Michaelis-Menten model. The Km and Vmax of enzymes were calculated as follows:(3) V=Vmax×[S]/Km+[S], where [S] is the substrate concentration. All results were shown as the mean ± standard error (SE). Differences among different groups were compared using one-way analysis of variance. A p-value < 0.05 was considered statistically significant.

UGT1A9 = target: T2, UGT1A9 (Homo sapiens, UniProt O60656); experiment: Recombinant UGT reaction screening and enzyme kinetics, UGT1A9; type: in vitro ADME; details: recombinant UGT1A9 screening
T2 construct: purchased BD Biosciences (Woburn, MA, USA)
T2 sequence (O60656 26-530): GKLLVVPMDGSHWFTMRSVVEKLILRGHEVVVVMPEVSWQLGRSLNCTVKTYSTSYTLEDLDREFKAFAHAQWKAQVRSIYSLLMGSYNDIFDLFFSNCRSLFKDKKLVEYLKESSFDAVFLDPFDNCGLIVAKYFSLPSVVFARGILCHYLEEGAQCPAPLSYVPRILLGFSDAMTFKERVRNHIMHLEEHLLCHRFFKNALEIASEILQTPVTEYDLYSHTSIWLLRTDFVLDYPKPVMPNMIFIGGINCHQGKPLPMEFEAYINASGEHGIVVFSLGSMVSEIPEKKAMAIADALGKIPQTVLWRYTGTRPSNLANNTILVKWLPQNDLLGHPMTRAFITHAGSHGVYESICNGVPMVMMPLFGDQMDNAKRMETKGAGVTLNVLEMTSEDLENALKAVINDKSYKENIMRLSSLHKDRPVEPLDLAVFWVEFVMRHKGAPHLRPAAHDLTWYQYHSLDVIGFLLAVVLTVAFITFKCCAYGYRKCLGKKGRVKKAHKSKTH
Experimental: as §1, §2

[2] = tested on: pooled human liver microsomes (HLMs); experiment: Glucuronidation kinetics of tectorigenin and irigenin in HLMs; type: in vitro ADME; details: irigenin glucuronidation in HLMs
Experimental: To obtain suitable incubation conditions, we first evaluated the linearity of metabolite formation at different times (10–60 min), the UDPGA concentrations (0.5–5 mM), and the microsome protein concentrations in HLMs (0.2–2 mg/mL). The final incubation medium used in the experiment contained MgCl2 (10 mM), microsomes (0.5 mg/mL), 1,4-lactone monohydrate (5 mM), alamethicin ([…]), UDPGA (1 mM), and different concentrations of tectorigenin or irigenin (1–300 μM) in Tris-HCl buffer (50 mM, pH 7.4). The mixture was incubated at 37 °C for 30 min; then, the reaction was stopped by adding ice-cold methanol. After the mixtures were centrifuged (17,000 rpm, 10 min), and the supernatant was analyzed by HPLC. Michaelis–Menten parameters (Vmax and Km) were determined on the basis of the nonlinear regression of the plot of the substrate concentration vs. rate of metabolite formation.
as §2

[3] = substrate: COc1cc(-c2coc3cc(O)c(OC)c(O)c3c2=O)cc(O)c1OC; experiment: Recombinant UGT reaction screening and enzyme kinetics, UGT1A1; type: in vitro ADME, human; details: other: irigenin glucuronidation, UGT1A1(M1)
Experimental: as §1, §2

[4] = substrate: COc1c(O)cc2occ(-c3ccc(O)cc3)c(=O)c2c1O; experiment: as above; type: in vitro ADME, human; details: other: tectorigenin glucuronidation (M) by UGT1A1
Experimental: as §1, §2

[5] = substrate: COc1cc(-c2coc3cc(O)c(OC)c(O)c3c2=O)cc(O)c1OC; experiment: Recombinant UGT reaction screening and enzyme kinetics, UGT1A9; type: in vitro ADME, human; details: other: irigenin glucuronidation
Experimental: as §1, §2

[6] = substrate: COc1c(O)cc2occ(-c3ccc(O)cc3)c(=O)c2c1O; experiment: as above; type: in vitro ADME, human; details: other: tectorigenin glucuronidation (M) by UGT1A9
Experimental: as §1, §2

[7] = 100 μM silibinin, 100 μM 1-naphthol

Molecule: Oc1cccc2ccccc12 [1-naphthol]
Effect of UGT inhibitor on production of M2 from irigenin (UGTs in HLMs; 100 μM 1-naphthol): inhibited
Effect of UGT inhibitor on tectorigenin glucuronidation (UGTs in HLMs; [7]): significantly inhibited

Stability in Autosampler for 12 h, RE (%) ([1]; High concentration): −5.18%
Stability in Inactivated Metabolic System for 2 h, RE (%) ([1]; High concentration): 0.59%
Stability −80 °C for 7 Days, RE (%) ([1]; High concentration): 4.71%
Stability in Autosampler for 12 h, RE (%) ([1]; Low concentration): −2.13%
Stability in Inactivated Metabolic System for 2 h, RE (%) ([1]; Low concentration): 0.38%
Stability −80 °C for 7 Days, RE (%) ([1]; Low concentration): 2.90%
Stability of metabolites ([1]; inactivated metabolic system 2 h (approx. 25 °C), 7 days at −80 °C, autosampler 12 h at 4 °C): stable
Molecule: COc1c(O[C@@H]2O[C@H](C(=O)O)[C@@H](O)[C@H](O)[C@H]2O)cc2occ(-c3ccc(O)cc3)c(=O)c2c1O [M, tectorigenin-7-O-glucuronide]

Molecule: COc1cc(C2Oc3cc([C@H]4Oc5cc(O)cc(O)c5C(=O)[C@@H]4O)ccc3OC2CO)ccc1O (some centres unmarked) [Silibinin]
Effect of UGT inhibitor on tectorigenin glucuronidation (UGTs in HLMs; [7]): significantly inhibited
Effect of UGT inhibitor on production of M1 from irigenin (UGTs in HLMs; 100 μM silibinin): significantly inhibited

Activity in glucuronidation of irigenin, M1 formation (UGT1A1): highest activity
Activity in glucuronidation of irigenin, M2 formation (UGT1A9): highest effect
Km ([2]; metabolite M1, read-out: Km for M1 formation): 16.9 ± 2.96 µM
Km ([2]; metabolite M2, read-out: Km for M2 formation): 27.4 ± 2.46 µM
Stability in pretreated samples in the autosampler ([1]; autosampler 12 h at 4 °C): stable
RE and RSD values in pretreated samples in the autosampler ([1]; autosampler 12 h at 4 °C, printed as below ±5%): < 5%
Molecule: COc1cc(-c2coc3cc(O)c(OC)c(O)c3c2=O)cc(O)c1OC [Irigenin, 3’,5,7-trihydroxy-4’,5’,6-trimethoxy isoflavone]
Vmax for M1 formation ([2]; metabolite M1): 6.09 ± 0.27 nmol/min/mg
Vmax for M2 formation ([2]; metabolite M2): 1.16 ± 0.03 nmol/min/mg

B1: UGT1A1 (Homo sapiens) (protein)
chain: HAGKILLIPVDGSHWLSMLGAIQQLQQRGHEIVVLAPDASLYIRDGAFYTLKTYPVPFQREDVKESFVSLGHNVFENDSFLQRVIKTYKKIKKDSAMLLSGCSHLLHNKELMASLAESSFDVMLTDPFLPCSPIVAQYLSLPTVFFLHALPCSLEFEATQCPNPFSYVPRPLSSHSDHMTFLQRVKNMLIAFSQNFLCDVVYSPYATLASEFLQREVTVQDLLSSASVWLFRSDFVKDYPRPIMPNMVFVGGINCLHQNPLSQEFEAYINASGEHGIVVFSLGSMVSEIPEKKAMAIADALGKIPQTVLWRYTGTRPSNLANNTILVKWLPQNDLLGHPMTRAFITHAGSHGVYESICNGVPMVMMPLFGDQMDNAKRMETKGAGVTLNVLEMTSEDLENALKAVINDKSYKENIMRLSSLHKDRPVEPLDLAVFWVEFVMRHKGAPHLRPAAHDLTWYQYHSLDVIGFLLAVVLTVAFITFKCCAYGYRKCLGKKGRVKKAHKSKTH
notes: purchased BD Biosciences (Woburn, MA, USA)
Km [3]: 20.86 ± 2.04 µM
Vmax [3]: 0.00522 µmol/min/mg
Km [4]: 4.064e-05 ± 5.56e-06 M
Vmax [4]: 0.00901 µmol/min/mg

B2: UGT1A9 (Homo sapiens) (protein)
chain: GKLLVVPMDGSHWFTMRSVVEKLILRGHEVVVVMPEVSWQLGRSLNCTVKTYSTSYTLEDLDREFKAFAHAQWKAQVRSIYSLLMGSYNDIFDLFFSNCRSLFKDKKLVEYLKESSFDAVFLDPFDNCGLIVAKYFSLPSVVFARGILCHYLEEGAQCPAPLSYVPRILLGFSDAMTFKERVRNHIMHLEEHLLCHRFFKNALEIASEILQTPVTEYDLYSHTSIWLLRTDFVLDYPKPVMPNMIFIGGINCHQGKPLPMEFEAYINASGEHGIVVFSLGSMVSEIPEKKAMAIADALGKIPQTVLWRYTGTRPSNLANNTILVKWLPQNDLLGHPMTRAFITHAGSHGVYESICNGVPMVMMPLFGDQMDNAKRMETKGAGVTLNVLEMTSEDLENALKAVINDKSYKENIMRLSSLHKDRPVEPLDLAVFWVEFVMRHKGAPHLRPAAHDLTWYQYHSLDVIGFLLAVVLTVAFITFKCCAYGYRKCLGKKGRVKKAHKSKTH
notes: as for B1
Km ([5]; UGT1A9(M1)): 73.88 ± 4.04 µM
Vmax ([5]; UGT1A9(M1)): 0.00045 µmol/min/mg
Km ([5]; UGT1A9(M2)): 25.04 ± 2.37 µM
Vmax ([5]; UGT1A9(M2)): 0.00456 µmol/min/mg
Km [6]: 1.837e-05 ± 1.16e-06 M
Vmax [6]: 0.00349 µmol/min/mg
